Reference: patent US20230151336A1, “STEM CELL DERIVED SINGLE-ROSETTE BRAIN ORGANOIDS AND RELATED USES THEROF” (The Regents of the University of Michigan, priority 2020, published 2023)

Tests used:
Type in all cases: cell-based, human
[1] = system: self-organizing single-rosette spheroids (SOSRS); assay: SOSRS cell death and growth during dorsal differentiation
Method: iPSC lines were passaged using Accutase (Innovative cell) and replated onto Geltrex-coated (1:50 dilution in DMEM/F12) 12-well plates at 1.5-2×10^5 cells/well in mTeSR1 with 10 μM rho-kinase inhibitor (Y-27632; Tocris, 1254). The medium without the inhibitor was replaced daily until the cells reach 80-100% confluency. The medium was then changed to 3N (50:50 DMEM/F12:neurobasal with N2 and B27 supplements) (see, Shi, Y., et al., Nature Neuroscience 15, 477-486 (2012)) without vitamin A with 2 μM DMH1 (Tocris, 4126), 2 μM XAV939 (Cayman Chemical, 13596), and 10 μM SB431542 (Cayman Chemical, 13031) (4 mL of medium per well). 75% of this medium was changed daily with 1 μM cyclopamine (Cayman Chemical, 11321) added beginning on day 1. On day 4, the monolayer was cut into squares using the StemPro EZ passage tool. The squares were then washed once with PBS and incubated for 2 minutes with L7 hPSC passaging solution (Lonza). After aspirating the L7 solution, the squares were sprayed off the bottom with the same culture medium 1 mL of preconditioned culture media with a P1000 micropipette. An additional 2 mL of fresh culture medium with the 4 inhibitors was added for a final volume of 3 mL. Approximately 200 μL of resuspended squares were then transfer into the wells of 96-well plates preincubated at 37° C. for 20 minutes with 30 μL of 100% Geltrex solution in each well. Up to 16 wells can be made using one monolayer well. Higher densities will result in fusion between nearby SOSRS forming multi-rosette doublets or “strings”. After 48 hours, daily 50% media changes were performed. On day 6 overall (2 days after cutting), the four inhibitors were no longer added but replaced with the 3 μM CHIR99021. After 3-4 additional days of culture, the wells were washed once with PBS and incubated for 2 minutes with L7 solution. The organoids were individually removed using the STRIPPER (Cooper Surgical) with 275 μM tips and plated individually in the wells of a low-adherence U-bottom 96-well plate with 200 μL of 3N medium without vitamin A with 3 μM CHIR99021, BDNF (20 ng/mL), and NT3 (20 ng/mL). […]

ventral SOSRS = assay: Ventral SOSRS patterning (immunostaining, size)
Method: For ventral SOSRS differentiation, no cyclopamine or CHIR99021 were used. After plating onto Geltrex, 1 μM SAG and 2 μM XAV939 were added the culture media for 1 week. All other procedures were performed identically (FIG. 5).
SOSRS imaged before day 11 were grown on Nunc™ Lab-Tek™ III 8-well chamber slides (Thermo Scientific) and were fixed in paraformaldehyde for 30 min at room temperature (RT). After permeabilization with 0.2% Triton-X 100 for 20 min at RT, cells were incubated in PBS containing 5% normal goat serum with 1% BSA and 0.05% Triton-X100 for 1 h at RT. Older SOSRS were fixed for 30 minutes in suspension and incubated in 30% sucrose overnight at 4 C followed by embedding in TFM medium and freezing on dry ice. The blocks were sectioned on a Cryostat with 20 μM section thickness. All samples were incubated in primary antibody overnight (see Supplemental Table 2 for antibodies and dilutions) in the same blocking buffer at 4° C., washed 4 times in PBS with 0.05% Tween-20 (PBST), and incubated for 90 min with secondary antibody. Cells were washed 3 times in PBST and incubated with bisbenzimide for 5 min. After additional PBS washes, coverslips were mounted on slides with Glycergel mounting medium (Agilent Dako). Images were obtained on a Leica SP5 upright DMI 6000 confocal microscope. […]

[2] = system: self-organizing single-rosette spheroids (SOSRS); assay: SOSRS neuroteratogen screening (structural read-out of lumen/neurulation)
Method: iPSC lines were passaged using Accutase (Innovative cell) and replated onto Geltrex-coated (1:50 dilution in DMEM/F12) 12-well plates at 1.5-2×10^5 cells/well in mTeSR1 with 10 μM rho-kinase inhibitor (Y-27632; Tocris, 1254). The medium without the inhibitor was replaced daily until the cells reach 80-100% confluency. The medium was then changed to 3N (50:50 DMEM/F12:neurobasal with N2 and B27 supplements) (see, Shi, Y., et al., Nature Neuroscience 15, 477-486 (2012)) without vitamin A with 2 μM DMH1 (Tocris, 4126), 2 μM XAV939 (Cayman Chemical, 13596), and 10 μM SB431542 (Cayman Chemical, 13031) (4 mL of medium per well). 75% of this medium was changed daily with 1 μM cyclopamine (Cayman Chemical, 11321) added beginning on day 1. On day 4, the monolayer was cut into squares using the StemPro EZ passage tool. The squares were then washed once with PBS and incubated for 2 minutes with L7 hPSC passaging solution (Lonza). After aspirating the L7 solution, the squares were sprayed off the bottom with the same culture medium 1 mL of preconditioned culture media with a P1000 micropipette. An additional 2 mL of fresh culture medium with the 4 inhibitors was added for a final volume of 3 mL. Approximately 200 μL of resuspended squares were then transfer into the wells of 96-well plates preincubated at 37° C. for 20 minutes with 30 μL of 100% Geltrex solution in each well. Up to 16 wells can be made using one monolayer well. Higher densities will result in fusion between nearby SOSRS forming multi-rosette doublets or “strings”. After 48 hours, daily 50% media changes were performed. On day 6 overall (2 days after cutting), the four inhibitors were no longer added but replaced with the 3 μM CHIR99021. After 3-4 additional days of culture, the wells were washed once with PBS and incubated for 2 minutes with L7 solution. The organoids were individually removed using the STRIPPER (Cooper Surgical) with 275 μM tips and plated individually in the wells of a low-adherence U-bottom 96-well plate with 200 μL of 3N medium without vitamin A with 3 μM CHIR99021, BDNF (20 ng/mL), and NT3 (20 ng/mL). Ideal diameters for picking the SOSRS are between 250-300 μM. Two days later half-fold media changes with 3N with vitamin A, BDNF (20 ng/mL), and NT3 (20 ng/mL) and repeated every other day. After 35 days of differentiation, 3N media with vitamin A without neurotrophic factors (BDNF and NT3) is used for half-fold media changes every other day. Around this time, SOSRS are transferred from the low-adherence 96-well plate to a low-adherence 24 well plate for a necessary increase in media volume due to SOSRS size.
SOSRS imaged before day 11 were grown on Nunc™ Lab-Tek™ III 8-well chamber slides (Thermo Scientific) and were fixed in paraformaldehyde for 30 min at room temperature (RT). After permeabilization with 0.2% Triton-X 100 for 20 min at RT, cells were incubated in PBS containing 5% normal goat serum with 1% BSA and 0.05% Triton-X100 for 1 h at RT. Older SOSRS were fixed for 30 minutes in suspension and incubated in 30% sucrose overnight at 4 C followed by embedding in TFM medium and freezing on dry ice. The blocks were sectioned on a Cryostat with 20 μM section thickness. All samples were incubated in primary antibody overnight (see Supplemental Table 2 for antibodies and dilutions) in the same blocking buffer at 4° C., washed 4 times in PBS with 0.05% Tween-20 (PBST), and incubated for 90 min with secondary antibody. Cells were washed 3 times in PBST and incubated with bisbenzimide for 5 min. After additional PBS washes, coverslips were mounted on slides with Glycergel mounting medium (Agilent Dako). Images were obtained on a Leica SP5 upright DMI 6000 confocal microscope.
This 3D model of human neurulation allowed us to test known neuroteratogens that block a specific pathway necessary for proper neural tube formation. These were the rho-kinase inhibitor, Y-27632, and the non-muscle myosin inhibitor, blebbistatin^26, 27. […]

[3] = addition from day 6-10, 3 μM, FIG. 2

SMILES | apical end-feet surface areas (ZO-1) [2] | lumen circularity [2] | lumen/total area [2] | other results
Cc1c[nH]c(-c2cnc(NCCNc3ccc(C#N)cn3)nc2-c2ccc(Cl)cc2Cl)n1 [CHIR99021] |  |  |  | SOSRS growth [1, 3]: grow more rapidly; cell death around SOSRS perimeter [1, 3]: blocked the majority of cell death; PAX6 positive cells ([1]; pulse day 6-10, FIGS. 1i and j): rapid expansion
CNC1CCC(N(Cc2cccc(-c3ccncc3)c2)C(=O)c2sc3ccccc3c2Cl)CC1 (stereo not drawn) [SAG] |  |  |  | NKX2.1/FOXG1 positive cells (ventral SOSRS; one-month SOSRS, SAG instead of CHIR99021 from day 7 to day 14, XAV939 continued): ~100%
CC(/C=C/C(=O)NO)=C\[C@@H](C)C(=O)c1ccc(N(C)C)cc1 [TSA] |  |  |  | replication of the VPA effect on ratio of lumen area to SOSRS area [2]: not replicated
Oc1nc(-c2ccc(C(F)(F)F)cc2)nc2c1CSCC2 [XAV939, 3,5,7,8-Tetrahydro-2-[4-(trifluoromethyl)phenyl]-4H-thiopyrano[4,3-d]pyri-midin-4-one] |  |  |  | SOSRS size and MGE specification (ventral SOSRS; continued day 7 to day 14 with SAG, data not shown): increase
C[C@@H](N)[C@H]1CC[C@H](C(=O)Nc2ccncc2)CC1 [Y-27632] | increased | decreased | increased | 
Cc1ccc2c(c1)C(=O)C1(O)CCN(c3ccccc3)C1=N2 (stereo not drawn) [blebbistatin] | increased | decreased | increased | 
